The Deep4Chem optical property database

Assay: photoluminescence quantum yield (fraction); solvent given as SMILES
[1] = in O=P(c1ccccc1)(c1ccccc1)c1ccccc1Oc1ccccc1P(=O)(c1ccccc1)c1ccccc1

## O=S1c2ccc(-c3c4ccccc4cc4ccccc34)cc2-c2cc(-c3c4ccccc4cc4ccccc34)ccc21
In C1CCCCC1
  photoluminescence quantum yield: 0.31
In CC#N
  photoluminescence quantum yield: 0.14
In ClCCl
  photoluminescence quantum yield: 0.27

## COc1ccc(-c2cc(-c3ccc(C)cc3)nc3c(C#N)c(N4CCCC4)nc(N)c23)cc1
In CC#N
  photoluminescence quantum yield: 0.06
In c1ccccc1
  photoluminescence quantum yield: 0.084

## Cc1ccc(C2=C3C=C(I)C=[N+]3[B-](F)(F)n3cccc32)cc1
In C1CCCCC1
  photoluminescence quantum yield: 0.034
In CC#N
  photoluminescence quantum yield: 0.008
In CCO
  photoluminescence quantum yield: 0.01
In CCOC(C)=O
  photoluminescence quantum yield: 0.011
In CO
  photoluminescence quantum yield: 0.008
In OCC(F)(F)F
  photoluminescence quantum yield: 0.009

## Cc1ccc(-n2c(-c3ccccc3[N-]S(=O)(=O)c3ccc(C)cc3)[nH+]c3c4ccccc4c4ccccc4c32)cc1
In Cc1ccccc1
  photoluminescence quantum yield: 0.468

## C#Cc1ccc2ccc3oc(=O)cc(C)c3c2c1
In CCO
  photoluminescence quantum yield: 0.23

## COc1cccc(-c2nc3sc4ccccc4c3s2)c1
In CS(C)=O
  photoluminescence quantum yield: 0.62

## C=Cc1cc2cc3c(cc2oc1=O)OCO3
In CC#N
  photoluminescence quantum yield: 0.65

## O=c1c2ccccc2[nH]c2ccccc12
In CS(C)=O
  photoluminescence quantum yield: 0.75

## F[B-]1(F)n2c(cc3oc4ccccc4c32)C(c2ccc(I)cc2)=C2C=c3oc4ccccc4c3=[N+]21
In ClC(Cl)Cl
  photoluminescence quantum yield: 0.34

## Cc1cc(C)c([B-]2(c3c(C)cc(C)cc3C)[O+]=P(c3ccccc3)(c3ccccc3)c3cc(-c4ccccc4)sc3-c3sc(-c4ccccc4)cc32)c(C)c1
In C1CCOC1
  photoluminescence quantum yield: 0.58

## Cc1ccc(N(c2ccc(C)cc2)c2ccc3c(c2)c2cc(N(c4ccc(C)cc4)c4ccc(C)cc4)ccc2n3-c2ccc(-c3nc4cccc5c4n3-c3ccccc3C5(C)C)cc2)cc1
In Cc1ccccc1
  photoluminescence quantum yield: 0.85
[1]
  photoluminescence quantum yield: 0.45

## CN(C)c1ccc(C2=Cc3cccc[n+]3[B-](F)(F)O2)cc1
In C1CCOC1
  photoluminescence quantum yield: 0.684
In C1COCCO1
  photoluminescence quantum yield: 0.794
In CC1CCCCC1
  photoluminescence quantum yield: 0.519
In CC#N
  photoluminescence quantum yield: 0.517
In CCOC(C)=O
  photoluminescence quantum yield: 0.699
In CCOCC
  photoluminescence quantum yield: 0.868
In CN(C)C=O
  photoluminescence quantum yield: 0.382
In CO
  photoluminescence quantum yield: 0.454
In COC(C)=O
  photoluminescence quantum yield: 0.569
In ClC(Cl)Cl
  photoluminescence quantum yield: 0.705

## CC1(C)c2ccccc2N(c2ccc(-c3ccc4c(c3)C(=O)c3ccc(-c5ccc(N6c7ccccc7C(C)(C)c7ccccc76)cc5)cc3C4=O)cc2)c2ccccc21
In Cc1ccccc1
  photoluminescence quantum yield: 0.17
In c1ccc2c(c1)c1ccccc1n2-c1ccc(-c2ccc(-n3c4ccccc4c4ccccc43)cc2)cc1
  photoluminescence quantum yield: 0.5

## COc1ccc2cc(C3=[N+]4C(=Nc5c(-c6ccccc6)cc(-c6ccc7cc(OC)ccc7c6)n5[B-]4(F)F)C(c4ccccc4)=C3)ccc2c1
In ClC(Cl)Cl
  photoluminescence quantum yield: 0.33
In ClCCl
  photoluminescence quantum yield: 0.33

## C#CCOc1ccc(/C=C/C2=[N+]3C(=C(c4ccc(N(C)CC)cc4)c4c(C)cc(C)n4[B-]3(F)F)C(C)=C2)cc1
In CO
  photoluminescence quantum yield: 0.84

## CCCCCCOc1cc(C=C2C(=O)c3ccccc3C2=O)c(OCCCCCC)cc1C=C1C(=O)c2ccccc2C1=O
In ClCCl
  photoluminescence quantum yield: 0.697

## Cc1ccc(O)c(-c2[nH]c(=O)n3c2-c2ccccc2C3=O)c1
In CC#N
  photoluminescence quantum yield: 0.51
In CO
  photoluminescence quantum yield: 0.25
In ClCCl
  photoluminescence quantum yield: 0.62

## c1ccc(-c2nc(-c3ccccc3)nc(-c3ccc(-n4c5ccccc5c5c6c(ccc54)C4(c5ccccc5-c5ccccc54)c4ccccc4-6)cc3)n2)cc1
[1]
  photoluminescence quantum yield: 0.45

## COc1ccc2cc3cccc[n+]3cc2c1
In O
  photoluminescence quantum yield: 0.2

## N#Cc1c(-n2c3ccccc3c3ccccc32)c(-n2c3ccccc3c3ccccc32)cc(-n2c3ccccc3c3ccccc32)c1-n1c2ccccc2c2ccccc21
In Cc1ccccc1
  photoluminescence quantum yield: 0.49

## Cc1cn(C)c(=O)nc1-n1cncn1
In O
  photoluminescence quantum yield: 0.071

## CC(=O)c1ccn2c3c(c(-c4cc[n+](C)cc4)c2c1)CN(C)C3=O
In O
  photoluminescence quantum yield: 0.093

## COc1ccc2c3c(c4ccc(OC)cc4c2c1)C(C)(C)c1ccccc1-3
In C1CCCCC1
  photoluminescence quantum yield: 0.19

## Cc1cc(N(C)C)cc(C)c1/C=C/C=C/c1ccc(C#N)cc1
In C1CCOC1
  photoluminescence quantum yield: 0.087
In CC#N
  photoluminescence quantum yield: 0.212
In CCCCCC
  photoluminescence quantum yield: 0.043
In CCCCOCCCC
  photoluminescence quantum yield: 0.061
In CCO
  photoluminescence quantum yield: 0.168
In CCOCC
  photoluminescence quantum yield: 0.082

## COc1cc(OC)cc(-c2ccc(-c3ccc(C#N)s3)s2)c1
In C1CCCCC1
  photoluminescence quantum yield: 0.09
In C1COCCO1
  photoluminescence quantum yield: 0.09
In CC#N
  photoluminescence quantum yield: 0.11
In CC(C)O
  photoluminescence quantum yield: 0.1
In CCCCO
  photoluminescence quantum yield: 0.1
In CCO
  photoluminescence quantum yield: 0.1
In CCOC(C)=O
  photoluminescence quantum yield: 0.09
In CN(C)C=O
  photoluminescence quantum yield: 0.12
In CO
  photoluminescence quantum yield: 0.1
In CS(C)=O
  photoluminescence quantum yield: 0.16
In Cc1ccccc1
  photoluminescence quantum yield: 0.09
In ClC(Cl)Cl
  photoluminescence quantum yield: 0.1
In ClCCl
  photoluminescence quantum yield: 0.09
In O
  photoluminescence quantum yield: 0.02

## Cc1cc(C)c(B(c2ccc(-c3ccc4ccc5cccc6ccc3c4c56)cc2)c2c(C)cc(C)cc2C)c(C)c1
In Cc1ccccc1
  photoluminescence quantum yield: 0.61

## CC(C)(C)c1ccc(C2=C(c3ccc(C(C)(C)C)cc3)[Si](c3ccccc3)(c3ccccc3)c3ccccc32)cc1
In C1CCOC1
  photoluminescence quantum yield: 0.015

## CC(C)(C)c1ccc(C2=C(c3ccc(-n4c5ccccc5c5ccccc54)cc3)S(=O)(=O)c3c2sc(-c2ccc(-n4c5ccccc5c5ccccc54)cc2)c3-c2ccc(C(C)(C)C)cc2)cc1
In C1CCOC1
  photoluminescence quantum yield: 0.056

## CCCC1(CCC)c2cc(C#N)ccc2-c2ccc(C#N)cc21
In C1CCCCC1
  photoluminescence quantum yield: 0.32

## O=Cc1ccc2c(c1)c1ccccc1n2-c1cc2ccccc2c2ccccc12
In CC#N
  photoluminescence quantum yield: 0.015
In CCCCC
  photoluminescence quantum yield: 0.025
In Cc1ccccc1
  photoluminescence quantum yield: 0.022
In ClCCl
  photoluminescence quantum yield: 0.03

## CC(C)(C)c1ccc(C2=c3c(c4ccc(C(C)(C)C)cc4c4cc(C(C)(C)C)ccc34)=[N+]3C2=C(c2ccccc2)c2c(-c4ccc(C(C)(C)C)cc4)c4c5ccc(C(C)(C)C)cc5c5cc(C(C)(C)C)ccc5c4n2[B-]3(F)F)cc1
In C1CCCCC1
  photoluminescence quantum yield: 0.44
In C1CCOC1
  photoluminescence quantum yield: 0.45
In CC#N
  photoluminescence quantum yield: 0.27
In Cc1ccccc1
  photoluminescence quantum yield: 0.46
In ClCCl
  photoluminescence quantum yield: 0.45

## CN(C)c1ccc2nc(/C=C/c3cc4c5c(c3)CCCN5CCC4)c(=O)oc2c1
In C1CCCCC1
  photoluminescence quantum yield: 0.37
In C1COCCO1
  photoluminescence quantum yield: 0.56
In CC#N
  photoluminescence quantum yield: 0.023
In CC(C)=O
  photoluminescence quantum yield: 0.08
In CCCCCCC
  photoluminescence quantum yield: 0.32
In CCO
  photoluminescence quantum yield: 0.008
In CCOC(C)=O
  photoluminescence quantum yield: 0.39
In CN(C)C=O
  photoluminescence quantum yield: 0.036
In CS(C)=O
  photoluminescence quantum yield: 0.03
In Cc1ccccc1
  photoluminescence quantum yield: 0.55
In ClC(Cl)Cl
  photoluminescence quantum yield: 0.2
In ClCCl
  photoluminescence quantum yield: 0.19

## CC/[NH+]=c1\cc2oc3cc(NC)c(C)cc3c(-c3ccccc3C(=O)OCC)c-2cc1C
In CCO
  photoluminescence quantum yield: 0.94
In O
  photoluminescence quantum yield: 0.95

## C[Si](C)(C)c1ccc(-c2ccc(-c3ccc(-c4ccc(-c5ccc([Si](C)(C)C)cc5)s4)c4nsnc34)s2)cc1
In C1CCOC1
  photoluminescence quantum yield: 0.77

## Cc1cc(C)c(-c2nnc(-c3ccc(-n4c5ccccc5c5ccccc54)cc3)o2)c(C)c1
In Cc1ccccc1
  photoluminescence quantum yield: 0.59

## CN(C)c1ccc(N(C)C)cc1
In C1CCCCC1
  photoluminescence quantum yield: 0.21

## CCCC1(CCC)c2ccccc2-c2ccc(-c3ccc(OC)cc3)cc21
In C1CCCCC1
  photoluminescence quantum yield: 0.41

## CCN(CC)c1ccc2c(c1)C(C)(C)C(=O)C=C2
In O
  photoluminescence quantum yield: 0.09

## CCCCN1\C(=C/C=C/C=C/C2=[N+](CCCC)c3ccc4ccccc4c3C2(C)C)C(C)(C)c2c1ccc1ccccc21
In CS(C)=O
  photoluminescence quantum yield: 0.291

## COc1ccc(-c2cnc(/C=C/c3ccccc3)o2)cc1OC
In ClCCl
  photoluminescence quantum yield: 0.52

## Cc1cc(C)c2c(c1)c1cc(C)cc(C)c1n2-c1ccc2c(c1)Sc1cc3c(cc1B2c1c(C(C)C)cc(C(C)C)cc1C(C)C)B(c1c(C(C)C)cc(C(C)C)cc1C(C)C)c1ccccc1S3
In Cc1ccccc1
  photoluminescence quantum yield: 0.17
In O=P(c1ccccc1)(c1ccccc1)c1ccc2oc3ccc(P(=O)(c4ccccc4)c4ccccc4)cc3c2c1
  photoluminescence quantum yield: 0.93

## CC1=CC(C)=[N+]2C1=C(c1c3ccccc3cc3ccccc13)c1c(C)cc(C)n1[B-]2(F)F
In CC#N
  photoluminescence quantum yield: 0.006
In CCCCCC
  photoluminescence quantum yield: 0.99
In CCO
  photoluminescence quantum yield: 0.038
In CN(C)C=O
  photoluminescence quantum yield: 0.011
In Cc1ccccc1
  photoluminescence quantum yield: 0.92
In ClCCl
  photoluminescence quantum yield: 0.072

## c1ccc(-c2nc(-c3ccc(-c4nc(-c5ccccc5)c(-c5ccccc5)[nH]4)cc3)[nH]c2-c2ccccc2)cc1
In CC#N
  photoluminescence quantum yield: 0.75
In CS(C)=O
  photoluminescence quantum yield: 0.94

## N#Cc1nc(N(Cc2ccc(I)cc2)Cc2ccc(I)cc2)c(C#N)nc1N(Cc1ccc(I)cc1)Cc1ccc(I)cc1
In ClC(Cl)Cl
  photoluminescence quantum yield: 0.79

## c1ccc2c(c1)CCc1ccccc1N2
In CC#N
  photoluminescence quantum yield: 0.2
In CCCCCC
  photoluminescence quantum yield: 0.13
In CO
  photoluminescence quantum yield: 0.131

## F[B-]1(F)OC(c2ccc3ccccc3c2)=CC(c2ccc3ccccc3c2)=[O+]1
In CC#N
  photoluminescence quantum yield: 0.7
In ClC(Cl)(Cl)Cl
  photoluminescence quantum yield: 0.9

## COc1ccc(-c2nc(-c3ccccc3OC)[nH]c2-c2ccc(OC)cc2)cc1
In CO
  photoluminescence quantum yield: 0.27

## CN(C)c1ccc2nc(-c3ccc(C=C(C#N)C#N)cc3)sc2c1
In C1CCCCC1
  photoluminescence quantum yield: 0.85
In CC#N
  photoluminescence quantum yield: 0
In CO
  photoluminescence quantum yield: 0
In ClC(Cl)Cl
  photoluminescence quantum yield: 0.64

## CC(C)[Si](C#Cc1c2ccc(C(C)(C)C)cc2c(C#Cc2c3ccc(C(C)(C)C)cc3c(C#C[Si](C(C)C)(C(C)C)C(C)C)c3ccc(C(C)(C)C)cc23)c2ccc(C(C)(C)C)cc12)(C(C)C)C(C)C
In Cc1ccccc1
  photoluminescence quantum yield: 0.02

## CCCCOC(=O)c1cc(Oc2ccc(OC)cc2)c2c3c(Cl)cc4c5c(cc(Cl)c(c6c(Oc7ccc(OC)cc7)cc(C(=O)OCCCC)c1c26)c53)C(=O)N(c1c(C(C)C)cccc1C(C)C)C4=O
In Cc1ccccc1
  photoluminescence quantum yield: 0.55

## COc1ccc(-n2nc(C#N)c(N3CCCCC3)n2)cc1
In CC#N
  photoluminescence quantum yield: 0.929

## CNCCCC1c2ccccc2C=Cc2ccccc21
In CC#N
  photoluminescence quantum yield: 0.56
In CO
  photoluminescence quantum yield: 0.55
In O
  photoluminescence quantum yield: 0.62

## Cc1ccc(N2C(c3ccccc3N(C)C)=NC(c3ccccc3)C2c2ccccc2)cc1 (configuration not stated)
In Cc1ccccc1
  photoluminescence quantum yield: 0.275
